Results on 70 compounds are retold here after ChEMBL document CHEMBL1154198, “Chemical genetics of Plasmodium falciparum” (Nature, 2010).

Experiment [1] relates to Plasmodium falciparum. Briefly: ST_JUDE: Plasmodium falciparum 3D7 EC50 (uM) as measured by SYBR green dye. It is filed as functional, organism-based.
The subject of experiment [2] is Plasmodium falciparum. Briefly: ST_JUDE: Plasmodium falciparum K1 EC50 (uM) as measured by SYBR green dye. It is filed as functional, organism-based.

In general, EC50 refers to the concentration giving half of the maximal effect. A lower EC50 goes with higher potency in that assay. Turning to `Cc1ccc(/C=N/NC(=O)COc2ccc(Cl)cc2Cl)c(O)c1`, the half-maximal effective concentration (EC50) in experiment [1] and in experiment [2] was over 15 µM in each case.
`O=C(Nc1ccc([N+](=O)[O-])cc1)Nc1cc(Cl)cc(Cl)c1`: the EC50 in experiment [1] and in experiment [2] was over 15 µM each time.
`O=C(CSc1nnc(-c2ccncc2)o1)Nc1ccccc1C(F)(F)F`: the EC50 in experiment [1] and in experiment [2] was over 15 µM each time.
With `Cc1cc(C)c2ccc(N)nc2c1O`, the results for the EC50 in experiment [1] and in experiment [2] were 3.86 µM and 4.81 µM, respectively.
On the same counts, the results for `CCN(CC)S(=O)(=O)c1ccc(C(=O)NNc2nc3c(C)cccc3s2)cc1` are over 15 µM and over 15 µM.
In the same order, the values of `O=[N+]([O-])c1ccc(NC(c2ccccn2)c2ccc3cccnc3c2O)cc1` (stereo not given) are 4.78 µM and 2.28 µM.
As for `COc1ccccc1/C=C/C(=O)Nc1ccc(Cl)c(C(F)(F)F)c1`, the EC50 in experiment [1] and in experiment [2] was over 15 µM throughout.
For the compound `O=C(Nc1ccccc1O)c1ccc(-c2ccc(Cl)cc2Cl)o1`, the EC50 in experiment [1] is 2.46 µM; in experiment [2], over 15 µM.
Consider `COCCN1CCC(CN(Cc2ccncc2)Cc2ccc(CC(C)C)cc2)CC1`, for which the figures for the EC50 in experiment [1] and in experiment [2] were 6.73 µM and 5.3 µM, respectively.
In the same order, the values of `Cc1cc(C)c2sc(N(Cc3cccnc3)C(=O)c3ccc(C#N)cc3)nc2c1` are 5.77 µM and 3.94 µM.
In the same order, the values of `CCOc1cccc(CNC2CC(C)(C)Cc3c2cnn3-c2ccc(C)cc2)c1O` (stereo not given) are 3.15 µM and 0.795 µM.
In the same order, the values of `CCCN(CCC)C(=O)c1ccc2c(Cl)c3c(nc2c1)CCCC3` are over 15 µM and over 15 µM.
Consider `CC(=O)N1N=C2C3CCN(CC3)C2C1c1ccc(Br)cc1` (stereo not given), for which the EC50 in experiment [1] and in experiment [2] was over 15 µM throughout.
As to `O=C(NCCc1ccncc1)Nc1ccc([N+](=O)[O-])cc1`, the EC50 in experiment [1] and in experiment [2] was over 15 µM in each case.
On to `CCc1c(C)c2cc3c(c(C)c2oc1=O)OCN(CCc1ccc(OC)cc1)C3`, for which the EC50 is over 15 µM in experiment [1] and 0.514 µM in experiment [2].
In the same order, the values of `CCOC(=O)C(C)Oc1cccc2c(=O)n(CC(=O)Nc3ccccc3C(F)(F)F)ccc12` (stereo not given) are over 15 µM and over 15 µM.
On the same counts, the results for `COc1ccc(C(O)(CCC(C)C)C(CN2CCOCC2)c2ccc(Cl)cc2)cc1` (stereo not given) are 4.61 µM and 3.5 µM.
In the same order, the values of `Cc1cccc2sc(N(Cc3cccnc3)C(=O)c3ccco3)nc12` are 6.82 µM and 5.31 µM.
Regarding `Cc1cc(O)nc(Nc2nc(C)c3cccc(C)c3n2)n1`, the EC50 in experiment [1] and in experiment [2] was over 15 µM throughout.
In the case of `O=C(Nc1ccc(Br)cc1)Nc1cccc(Cl)c1`, the EC50 in experiment [1] was over 15 µM; in experiment [2] it was 5.49 µM.
In the same order, the values of `Cc1ccnc(NC(c2ccc([N+](=O)[O-])cc2)c2ccc3cccnc3c2O)c1` (stereo not given) are 1.81 µM and 3.7 µM.
On the same counts, the results for `Cc1cn2c(nc3c2c(=O)n(Cc2ccc(Br)cc2)c(=O)n3C)o1` are over 15 µM and over 15 µM.
On the same counts, the results for `CCCCN(C)S(=O)(=O)c1ccc(C(=O)N(Cc2ccccn2)c2nc3ccccc3s2)cc1` are over 15 µM and over 15 µM.
`C=CCN(CC=C)CCN1CCN(C(=O)Nc2cc(C(F)(F)F)cc(C(F)(F)F)c2)CC1`: the EC50 in experiment [1] came to 0.711 µM; in experiment [2], 0.535 µM.
Regarding `C[n+]1ccn2c3c(c4cc(C5CCCCC5)ccc42)CCCc31`, the EC50 in experiment [1] was over 15 µM; in experiment [2], 2.34 µM.
In the same order, the values of `Cc1ccc([N+](=O)[O-])cc1NC(=O)c1cc2ccccc2cc1O` are 0.825 µM and 0.827 µM.
In the same order, the values of `CN1CCN(Cc2c(O)ccc3c(=O)c(Oc4ccccc4Cl)c(C(F)(F)F)oc23)CC1` are 1.72 µM and 0.71 µM.
In the same order, the values of `CCc1ccccc1NC(=O)C1c2ccccc2C(=O)N2CCc3ccccc3C12` (stereo not given) are 0.841 µM and 1.17 µM.
For the compound `O=C(Nc1ccc(Cl)cc1C(O)c1ccccc1)c1cnn2c1NC(c1ccccc1)CC2C(F)(F)F` (stereo not given), the EC50 was found to be 0.765 µM in experiment [1] and 0.5 µM in experiment [2].
On the same counts, the results for `CC(C)(C)OC(=O)CCN1C(=O)CSC1c1cnccc1-c1ccc(Br)cc1` (stereo not given) are 2.32 µM and 3.17 µM.
With `COc1ccc(C(NC(=O)c2cccnc2)c2cc(Cl)c3cccnc3c2O)cc1OC` (stereo not given), the EC50 was over 15 µM in experiment [1] and 2.66 µM in experiment [2].
In the same order, the values of `CCOc1ccc(NC(=O)C2c3cc(OC)c(OC)cc3C(=O)N(C)C2c2ccc(OC)cc2)cc1` (stereo not given) are over 15 µM and 1.07 µM.
Regarding `CC(=O)c1ccc(NC2=C(n3nnc4ccccc43)C(=O)c3ccccc3C2=O)cc1`, the EC50 in experiment [1] is over 15 µM; in experiment [2], 1.58 µM.
On the same counts, the results for `CCOC(=O)N1CCN(C(=O)CN(Cc2ccc(Cl)cc2)S(=O)(=O)c2ccc(C)cc2)CC1` are 2.53 µM and 1.32 µM.
On the same counts, the results for `CCN(CC)CCn1c(=N)n(CC(O)COc2ccc(Cl)cc2Cl)c2ccccc21` (stereo not given) are 0.954 µM and 2.88 µM.
As to `COC(=O)Oc1ccc2c(=O)c(Oc3ccc4ccccc4c3)c(C(F)(F)F)oc2c1`, the EC50 in experiment [1] and in experiment [2] was over 15 µM in each case.
For the compound `COc1ccccc1CCN1COc2c(cc3c(C)c(C)c(=O)oc3c2C)C1`, the EC50 amounted to 1.5 µM in experiment [1] and 0.49 µM in experiment [2].
On the same counts, the results for `CCOCCCNC(=O)c1cc2c(-c3cccc(OC)c3)nn(C)c2s1` are over 15 µM and over 15 µM.
In the same order, the values of `CCc1cc2c(=O)c(Oc3ccccc3)c(C(F)(F)F)oc2cc1O` are over 15 µM and over 15 µM.
On the same counts, the results for `CN(CCO)CCCCOc1ccc2c(c1)C(=O)c1cc(OCCCCN(C)CCO)ccc1-2` are over 15 µM and 3.64 µM.
As to `Cc1ccc(Cn2c(=N)n(CC(=O)c3ccc([N+](=O)[O-])cc3)c3ccccc32)cc1`, the EC50 in experiment [1] amounted to 7.64 µM; in experiment [2], 10.4 µM.
`Cc1cccc(-c2c3c(=O)n(C)c(=O)n(C)c3cn2-c2cc(Cl)ccc2O)c1`: the EC50 in experiment [1] and in experiment [2] was over 15 µM each time.
`CCOC(=O)c1sc(N2C(=O)C(O)=C(C(=O)c3ccc(Cl)cc3)C2c2ccccc2)nc1C` (stereo not given): the 50% effective concentration (EC50) in experiment [1] and in experiment [2] was over 15 µM throughout.
Consider `CC(C)(C)CC(C)(C)NCC(O)COc1ccc2c(c1)CCC2` (stereo not given), for which the EC50 amounted to 4.42 µM in experiment [1] and 1.22 µM in experiment [2].
In the same order, the values of `CCOc1cc(O)c(-c2[nH]nc(C)c2Oc2ccc(F)cc2)cc1CC` are 2.51 µM and 3.55 µM.
In the same order, the values of `CCOc1cccc(CN2CCCC(C(=O)c3cccc(C(F)(F)F)c3)C2)c1O` (stereo not given) are 3.34 µM and 1.09 µM.
Consider `Fc1ccc(Nc2nc(NCCN3CCOCC3)nc3c2cnn3-c2ccccc2)cc1`, for which the results for the EC50 in experiment [1] and in experiment [2] were over 15 µM and 6.75 µM, respectively.
On the same counts, the results for `CC(=O)Oc1ccccc1C(=O)Nc1cccc(C(F)(F)F)c1` are 2.72 µM and 2.66 µM.
`COc1ccccc1Cn1ccnc1SCC(=O)Nc1cccc(C(F)(F)F)c1`: the values for the EC50 in experiment [1] and in experiment [2] were 1.47 µM and 1.59 µM, respectively.
On the same counts, the results for `CCCCC(=O)NC(c1ccc(C(C)C)cc1)c1cc([N+](=O)[O-])c2cccnc2c1O` (stereo not given) are over 15 µM and 5.13 µM.
In the same order, the values of `O=[N+]([O-])c1ccc(S(=O)(=O)N2CCN(C3CCC(c4ccccc4)CC3)CC2)cc1` (stereo not given) are over 15 µM and over 15 µM.
In the same order, the values of `CCN(CC)CCNC(=O)c1ccc(Cn2c(SCc3cccc(C)c3)nc3ccncc32)cc1` are 6.75 µM and over 15 µM.
Turning to `O=C(Nc1cccc(Br)c1)c1cc2ccccc2cc1O`, the EC50 in experiment [1] was over 15 µM; in experiment [2] it was 0.57 µM.
On the same counts, the results for `COc1cc2c(cc1OC)C(C(=O)Nc1ccc(C(F)(F)F)cc1)C(c1cccs1)N(C)C2=O` (stereo not given) are 2.34 µM and 3.05 µM.
In the same order, the values of `COc1ccc(S(=O)(=O)NC2=C/C(=N\c3ccc(NC(C)=O)cc3)C(=O)c3ccccc32)cc1` are 5.75 µM and 2.87 µM.
In the same order, the values of `C=CCc1cccc(/C=N/NC(=O)c2cccs2)c1O` are over 15 µM and 6.81 µM.
Take `Oc1c(C(Nc2ccccn2)c2ccc(Br)cc2)ccc2cccnc12` (stereo not given): the EC50 in experiment [1] amounted to 1.22 µM; in experiment [2], 2.84 µM.
Take `CCCC(=O)NC(c1ccc(C)cc1)c1ccc2cccnc2c1O` (stereo not given): the values for the EC50 in experiment [1] and in experiment [2] were 4.21 µM and over 15 µM, respectively.
In the same order, the values of `O=C1C(Nc2cccc(Br)c2)=C(N2CCCCC2)C(=O)c2ccccc21` are 0.456 µM and 1.15 µM.
On the same counts, the results for `CCOc1cccc2sc(N(Cc3cccnc3)C(=O)c3ccccc3[N+](=O)[O-])nc12` are 5.31 µM and over 15 µM.
On to `CCCC(=O)C1=C(c2cccc(OC)c2)N(C(=O)CCC)n2cnnc2S1`, for which the EC50 in experiment [1] and in experiment [2] was over 15 µM each time.
Consider `CC[n+]1ccccc1/C=C1\Sc2ccc(C)cc2N1C`, for which the EC50 in experiment [1] was 0.572 µM; in experiment [2], 0.453 µM.
On the same counts, the results for `CC(=O)N(C1=C(N2CCCC2)C(=O)c2ccccc2C1=O)C1CCCCC1` are 0.28 µM and 0.399 µM.
`COc1cc2nnc(/C=C/C(C)=O)c(-c3ccc(C)o3)c2cc1OC`: the EC50 in experiment [1] and in experiment [2] was over 15 µM in each case.
Take `Cc1ccc(-c2nc3ccccc3o2)cc1NC(=O)C(Cl)(Cl)Cl`: the EC50 in experiment [1] was found to be 4.07 µM; in experiment [2], 1.7 µM.
On the same counts, the results for `CC1=C(C)CC2C(=O)C3=C(C(=O)C2C1)C1c2ccccc2C3c2ccccc21` (stereo not given) are 3.15 µM and 1.62 µM.
In the same order, the values of `CS(=O)(=O)N(CC(=O)Nc1ccccc1Sc1ccccc1)c1ccc(Cl)c(Cl)c1` are 4.06 µM and 5.95 µM.
For the compound `CCc1cc2c(=O)c(-c3ccc(OC(C)C)cc3)coc2cc1OC(C)=O`, the EC50 in experiment [1] is over 15 µM; in experiment [2], 4.25 µM.
In the same order, the values of `Cn1c(=N)n(CC(O)c2ccc(Cl)c(Cl)c2)c2ccccc21` (stereo not given) are 2.3 µM and 2.43 µM.
On the same counts, the results for `COc1ccc(CN2CCCC(N3CCN(c4ccc(F)cc4)CC3)C2)c(O)c1` (stereo not given) are 1.61 µM and 1.04 µM.
